One assay has as its system MCF7. Put plainly: Cell proliferation assay (CellTiter-Glo, 96 h), MCF7. Particulars: Homo sapiens. It is filed as cell-based. As for the experimental part: In accordance with the invention, the substances were tested in cell-based assays for the ability of the substances of inhibiting tumour cell proliferation after a 96-hour incubation with the substance. Cell viability was tested using the CellTiter-Glo® luminescent cell viability assay (Promega). The cells were sown at a density of 2000-5000 cells/well (depending on the cell line) in 100 μl growth medium on 96-well microtitre plates. For each cell line examined, cells were sown on a separate plate to determine the luminescence at t=0 hours and t=96 hours. After overnight incubation at 37° C., the luminescence values for the t=0 samples were determined. The dose plates for the t=96 hours points in time were treated with substances diluted with growth medium. The cells were then incubated at 37° C. for 96 hours, and the luminescence values for the t=96 hours sample were then determined. For data analysis, the t=0 values were subtracted from the t=96 hour values for treated and untreated samples. The differences in luminescence in percent between substance-treated samples and control values were used to determine the growth inhibition in percent.
The substances were tested in the following cell lines which represent the stated indications in an exemplary manner: […]

The target in assay [1] is human ACC2 (acetyl-coenzyme A carboxylase 2) (Homo sapiens, UniProt O00763). As to the kind of experiment: Human ACC2 enzyme assay, Assay B2 (ADP-Glo).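 Note: human ACC2 activity read as ADP product, detected by luciferase glow luminescence after residual ATP removal, enzyme near 2 ng/µl in linear range, detection steps at 22 °C.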
Assay [2] addresses T1, human ACC1 (acetyl-coenzyme A carboxylase alpha transcript variant 1) (Homo sapiens, UniProt Q13085).
T1 construct: FLAG (C); made in house; host or cells: baculovirus-infected insect cells (Hi5)
As to the kind of experiment: Human ACC1 enzyme assay, Assay B1 (ADP-Glo). It is filed as biochemical.
Experimental: Essentially, the enzyme activity is measured by quantifying the adenosine diphosphate (ADP) formed as a byproduct of the enzyme reactions using the ADP-Glo™ detection system from Promega. In this test, initially the adenosine triphosphate (ATP) not consumed in the enzyme reaction is converted quantitatively with an adenylate cyclase (“ADP-GLO reagent”) into cAMP, the adenylate cyclase is then stopped and (“kinase detection reagent”) the ADP formed is subsequently converted into ATP, which is converted in a luciferase-based reaction into a glow luminescence signal.
The concentration of the hACC1 was adapted to the respective activity of the enzyme and adjusted such that the assay operated in the linear range. […] The amount of light emitted was taken as a measure for the amount of ADP formed and thus for the enzyme activity of the hACC1.

[3] abbreviates: MCF7, Table 7, 96-hour incubation.
The mark [4] stands for this setting: Assay B1, ADP-Glo, read-out: ACC 1 (=B1) IC50.
The mark [5] stands for this setting: Assay B1, read-out: ACC 1 (=B1) IC50.
The mark [6] stands for this setting: MCF7, Table 9a, 96-hour incubation.

Read-outs that look alike come from different tables or passages of the source.

Sequence of human ACC2 (acetyl-coenzyme A carboxylase 2) (O00763 27-2458 limits assumed): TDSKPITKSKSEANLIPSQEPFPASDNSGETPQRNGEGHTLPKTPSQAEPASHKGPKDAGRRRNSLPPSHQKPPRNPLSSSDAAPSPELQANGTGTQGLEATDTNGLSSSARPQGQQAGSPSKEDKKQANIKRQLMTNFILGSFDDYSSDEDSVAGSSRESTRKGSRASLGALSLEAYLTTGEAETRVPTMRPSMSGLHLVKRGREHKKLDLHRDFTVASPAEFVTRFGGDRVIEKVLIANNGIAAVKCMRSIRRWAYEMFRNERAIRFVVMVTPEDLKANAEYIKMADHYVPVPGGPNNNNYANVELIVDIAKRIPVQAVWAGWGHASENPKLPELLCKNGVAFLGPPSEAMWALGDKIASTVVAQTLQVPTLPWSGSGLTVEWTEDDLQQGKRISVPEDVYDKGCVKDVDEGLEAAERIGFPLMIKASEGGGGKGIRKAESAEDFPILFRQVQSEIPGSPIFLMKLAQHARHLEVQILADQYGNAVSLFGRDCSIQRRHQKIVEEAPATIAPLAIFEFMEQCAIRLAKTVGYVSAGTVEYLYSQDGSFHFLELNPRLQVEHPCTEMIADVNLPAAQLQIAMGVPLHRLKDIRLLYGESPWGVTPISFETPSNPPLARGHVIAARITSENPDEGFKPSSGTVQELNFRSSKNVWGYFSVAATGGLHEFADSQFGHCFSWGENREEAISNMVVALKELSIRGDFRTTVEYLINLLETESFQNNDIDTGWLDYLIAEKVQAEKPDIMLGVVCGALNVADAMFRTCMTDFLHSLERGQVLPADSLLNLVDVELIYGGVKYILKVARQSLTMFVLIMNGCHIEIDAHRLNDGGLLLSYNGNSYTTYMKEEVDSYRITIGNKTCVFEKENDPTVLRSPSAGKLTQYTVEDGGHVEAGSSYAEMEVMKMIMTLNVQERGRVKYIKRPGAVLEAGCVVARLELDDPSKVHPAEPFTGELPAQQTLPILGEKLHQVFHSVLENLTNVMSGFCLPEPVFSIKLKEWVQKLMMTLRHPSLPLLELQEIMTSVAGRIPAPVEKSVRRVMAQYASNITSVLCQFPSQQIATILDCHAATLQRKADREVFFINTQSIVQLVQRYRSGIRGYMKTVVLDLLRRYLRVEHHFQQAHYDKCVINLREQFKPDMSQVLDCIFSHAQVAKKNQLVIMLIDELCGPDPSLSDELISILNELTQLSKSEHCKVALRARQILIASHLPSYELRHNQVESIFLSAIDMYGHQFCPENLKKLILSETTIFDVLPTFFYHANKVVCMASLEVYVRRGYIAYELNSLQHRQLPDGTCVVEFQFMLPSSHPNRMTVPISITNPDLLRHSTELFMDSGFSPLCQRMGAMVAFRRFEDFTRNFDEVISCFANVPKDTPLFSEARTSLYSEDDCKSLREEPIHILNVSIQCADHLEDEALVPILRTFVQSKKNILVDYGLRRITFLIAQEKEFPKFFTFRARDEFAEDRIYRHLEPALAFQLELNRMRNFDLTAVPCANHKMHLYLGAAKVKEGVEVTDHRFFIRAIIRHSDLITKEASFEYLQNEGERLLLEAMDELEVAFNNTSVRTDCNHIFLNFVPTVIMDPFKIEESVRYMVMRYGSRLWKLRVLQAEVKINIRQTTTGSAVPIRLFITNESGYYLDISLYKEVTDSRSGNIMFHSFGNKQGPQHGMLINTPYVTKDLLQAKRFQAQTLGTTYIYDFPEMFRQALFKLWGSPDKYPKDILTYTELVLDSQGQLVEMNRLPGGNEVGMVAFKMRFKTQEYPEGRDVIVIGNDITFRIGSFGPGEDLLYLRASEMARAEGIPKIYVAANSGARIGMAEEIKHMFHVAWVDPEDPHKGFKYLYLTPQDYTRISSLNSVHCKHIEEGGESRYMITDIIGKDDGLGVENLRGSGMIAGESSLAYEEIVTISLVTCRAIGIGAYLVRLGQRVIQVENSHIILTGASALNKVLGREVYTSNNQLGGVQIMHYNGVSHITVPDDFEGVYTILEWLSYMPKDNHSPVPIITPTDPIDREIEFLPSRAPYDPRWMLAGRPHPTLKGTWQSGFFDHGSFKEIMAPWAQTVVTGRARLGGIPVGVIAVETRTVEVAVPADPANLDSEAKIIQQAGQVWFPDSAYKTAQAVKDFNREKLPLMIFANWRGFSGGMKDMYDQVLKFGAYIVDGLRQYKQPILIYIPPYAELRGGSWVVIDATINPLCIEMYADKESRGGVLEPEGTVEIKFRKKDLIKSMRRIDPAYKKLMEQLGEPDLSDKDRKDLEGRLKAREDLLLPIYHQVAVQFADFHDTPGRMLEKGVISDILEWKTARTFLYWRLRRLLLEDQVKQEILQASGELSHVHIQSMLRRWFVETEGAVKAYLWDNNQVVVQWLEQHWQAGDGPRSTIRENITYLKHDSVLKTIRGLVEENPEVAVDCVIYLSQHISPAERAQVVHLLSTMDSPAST

`COC1CCC2(C1)NC(=O)C(c1c(C)ccc(-c3ccc(Cl)cc3)c1C)=C2O` (stereo not drawn) [1-48, 3-(4′-chloro-2,4-dimethylbiphenyl-3-yl)-4-hydroxy-7-methoxy-1-azaspiro[4.4]non-3-en-2-one]: the 50% inhibitory concentration (IC50) with MCF7 (setting [3]) is 852 nM; in assay [1], 10.4 µM; in assay [2], 1560 nM.

Turning to `Cc1cc(C)c(-c2ccc(Cl)cc2)c(C)c1C1=C(O)C2(CCCCC2)OC1=O` [2-6, 3-(4′-chloro-2,4,6-trimethylbiphenyl-3-yl)-4-hydroxy-1-oxaspiro[4.5]dec-3-en-2-one], the results for the IC50 (in the assay with MCF7 (MCF7 cells); in assay [1]; in assay [2] (setting [4])) were 724 nM, 5.42 µM and 6850 nM, respectively.

Consider `Cc1ccc(-c2ccc(F)cc2)cc1C1=C(O)C2(CCC(OCC(F)(F)F)CC2)NC1=O` (stereo not drawn) [1-32, 3-(4′-fluoro-4-methylbiphenyl-3-yl)-4-hydroxy-8-(2,2,2-trifluoroethoxy)-1-azaspiro[4.5]dec-3-en-2-one], for which the values for the half-maximal inhibitory concentration (IC50) (in the assay on MCF7 (setting [3]); in assay [1]; in assay [2] (setting [5])) were 107 nM, 19 µM and 516 nM, respectively.

With `CCCC1CCC2(CC1)CC(=O)C(c1cc(-c3ccc(Cl)cc3)ccc1C)=C2O` (stereo not drawn) [6-6, 3-(4′-chloro-4-methylbiphenyl-3-yl)-4-hydroxy-8-propylspiro[4.5]dec-3-en-2-one], the concentration for half-maximal inhibition (IC50) came to 582 nM in the assay with MCF7 (setting [6]), 1.25 µM in assay [1] and 946 nM in assay [2] (setting [5]).

Consider `Cc1ccc(-c2ccc(Cl)cc2)cc1C1=C(O)C2(CCCCCC2)NC1=O` [1-26, 3-(4′-chloro-4-methylbiphenyl-3-yl)-4-hydroxy-1-azaspiro[4.6]undec-3-en-2-one], for which the concentration for half-maximal inhibition (IC50) with MCF7 (setting [3]) came out at 188 nM; in assay [1], 3.09 µM; in assay [2] (setting [5]), 367 nM.

For `Cc1cc(C)c(-c2ccc(Cl)cc2)cc1C1=C(O)C(C)(C)CCC1=O` [7-4, 2-(4′-chloro-4,6-dimethylbiphenyl-3-yl)-3-hydroxy-4,4-dimethylcyclohex-2-en-1-one], the IC50 in the assay with MCF7 (setting [6]) was 2630 nM; in assay [1], above 20 µM; in assay [2] (setting [5]), 7110 nM.

With `Cc1ccc(-c2ccc(Cl)cc2)cc1-c1c(O)c2ccc(Cl)cc2[nH]c1=O` [9-11, 7-chloro-3-(4′-chloro-4-methylbiphenyl-3-yl)-4-hydroxyquinolin-2(1H)-one], the 50% inhibitory concentration (IC50) in the assay with MCF7 (MCF7 cells) was 299 nM; in assay [1] (read-out: ACC 2 (=B2) IC50, Assay B2) it was 4.07 µM; in assay [2] (setting [5]), 397 nM.

With `Cc1ccc(-c2ccc(Cl)cc2)cc1C1=C(O)C2CSCCN2C1=O` (stereo not drawn) [1-21, 7-(4′-chloro-4-methylbiphenyl-3-yl)-8-hydroxy-1,3,4,8a-tetrahydro-6H-pyrrolo[2,1-c][1,4]thiazin-6-one], the half-inhibitory concentration (IC50) in the assay on MCF7 (setting [3]) turned out to be 392 nM; in assay [1], 10.3 µM; in assay [2] it was 630 nM.

`Cc1ccc(-c2ccc(Cl)cc2)cc1C1=C(O)C2(CCCCC2)CNC1=O` [9-3, 4-(4′-chloro-4-methylbiphenyl-3-yl)-5-hydroxy-2-azaspiro[5.5]undec-4-en-3-one]: the figures for the half-maximal inhibitory concentration (IC50) (with MCF7 (MCF7 cells); in assay [1]; in assay [2] (setting [5])) were 1530 nM, above 20 µM and 2340 nM, respectively.

As for `CO[C@H]1CC[C@]2(CC1)NC(=O)C(c1c(C)ccc(-c3ccc(F)cc3)c1C)=C2O` [1-45, (5s,8s)-3-(4′-fluoro-2,4-dimethylbiphenyl-3-yl)-4-hydroxy-8-methoxy-1-azaspiro[4.5]dec-3-en-2-one], the IC50 was found to be 626 nM with MCF7 (setting [3]), 8.83 µM in assay [1] and 701 nM in assay [2].

As for `Cc1cc(C)c(-c2ccc(Cl)cc2)c(C)c1C1=C(O)C2(CCCCC2)CC1=O` [6-9, 3-(4′-chloro-2,4,6-trimethylbiphenyl-3-yl)-4-hydroxyspiro[4.5]dec-3-en-2-one], the half-inhibitory concentration (IC50) is 1520 nM in the assay with MCF7 (setting [6]), 2.12 µM in assay [1] and at least 20000 nM in assay [2].

Consider `COCC1CCC2(CC1)OC(=O)C(c1cc(-c3ccc(Cl)cc3)ccc1C)=C2O` (stereo not drawn) [2-20, 3-(4′-chloro-4-methylbiphenyl-3-yl)-4-hydroxy-8-(methoxymethyl)-1-oxaspiro[4.5]dec-3-en-2-one], for which the IC50 in the assay on MCF7 (MCF7 cells) was 214 nM; in assay [1], 1.72 µM; in assay [2] (setting [4]) it was 102 nM.

As for `Cc1ccc(-c2ccc(Cl)cc2)c(C)c1C1=C(O)C2(CCCOC2)NC1=O` (stereo not drawn) [1-10, 3-(4′-chloro-2,4-dimethylbiphenyl-3-yl)-4-hydroxy-7-oxa-1-azaspiro[4.5]dec-3-en-2-one], the IC50 was determined as 1300 nM with MCF7 (setting [3]), 9.46 µM in assay [1] and 500 nM in assay [2].

As for `Cc1ccc(-c2ccc(Cl)cc2)cc1C1=C(O)C(C)(C)CNC1=O` [9-2, 3-(4′-chloro-4-methylbiphenyl-3-yl)-4-hydroxy-5,5-dimethyl-5,6-dihydropyridin-2(1H)-one], the IC50 in the assay on MCF7 (MCF7 cells) is 1720 nM; in assay [1] it was above 20 µM; in assay [2] (setting [5]), 11200 nM.

`Cc1ccc(-c2ccc(F)cc2)cc1C1=C(O)[C@]2(CC[C@@]3(CCCO3)CC2)OC1=O` [2-28, (5r,8s)-3-(4′-fluoro-4-methylbiphenyl-3-yl)-4-hydroxy-1,9-dioxadispiro[4.2.4.2]tetradec-3-en-2-one]: the 50% inhibitory concentration (IC50) in the assay on MCF7 (MCF7 cells) was 296 nM; in assay [1], 4.6 µM; in assay [2] (setting [4]) it was 128 nM.

Consider `Cc1ccc(-c2ccc(Cl)cc2)c(C)c1C1=C(O)C2(CCC(OCC(F)(F)F)CC2)OC1=O` (stereo not drawn) [2-32, 3-(4′-chloro-2,4-dimethylbiphenyl-3-yl)-4-hydroxy-8-(2,2,2-trifluoroethoxy)-1-oxaspiro[4.5]dec-3-en-2-one], for which the IC50 in the assay with MCF7 (MCF7 cells) worked out at 112 nM; in assay [1], 2.82 µM; in assay [2] it was 339 nM.

Consider `Cc1ccc(-c2ccc(Cl)cc2)c(C)c1C1=C(O)[C@]2(CC[C@]3(CCCO3)CC2)OC1=O` [2-26, (5s,8r)-3-(4′-chloro-2,4-dimethylbiphenyl-3-yl)-4-hydroxy-1,9-dioxadispiro[4.2.4.2]tetradec-3-en-2-one], for which the values for the IC50 (with MCF7 (MCF7 cells); in assay [1]; in assay [2] (setting [4])) were 5520 nM, above 20 µM and 6110 nM, respectively.

Turning to `COC1CCC2(CC1)NC(=O)C(c1c(C)cc(C)c(-c3ccc(Cl)cc3)c1C)=C2O` (stereo not drawn) [1-9, 3-(4′-chloro-2,4,6-trimethylbiphenyl-3-yl)-4-hydroxy-8-methoxy-1-azaspiro[4.5]dec-3-en-2-one], the IC50 in the assay with MCF7 (setting [3]) came to 287 nM; in assay [1], 0.276 µM; in assay [2], 11400 nM.

In the case of `Cc1ccc(-c2ccc(Cl)cc2)cc1C1=C(O)CN(C2CCCCC2)C1=O` [1-22, 3-(4′-chloro-4-methylbiphenyl-3-yl)-1-cyclohexyl-4-hydroxy-1,5-dihydro-2H-pyrrol-2-one], the IC50 in the assay with MCF7 (setting [3]) is 436 nM; in assay [1] it was 16.3 µM; in assay [2] (setting [5]), 2680 nM.

For the compound `Cc1cc(C)c(-c2ccc(Cl)cc2)c(C)c1C1=C(O)C2(CCCCCC2)OC1=O` [2-48, 3-(4′-chloro-2,4,6-trimethylbiphenyl-3-yl)-4-hydroxy-1-oxaspiro[4.6]undec-3-en-2-one], the figures for the 50% inhibitory concentration (IC50) (in the assay with MCF7 (MCF7 cells); in assay [1]; in assay [2] (setting [4])) were 762 nM, 0.417 µM and 1540 nM, respectively.

For the compound `Cc1ccc(-c2ccc(Cl)c(Cl)c2)cc1-c1c(O)c2ccc(Cl)cc2[nH]c1=O` [9-7, 7-chloro-3-(3′,4′-dichloro-4-methyl-biphenyl-3-yl)-4-hydroxyquinolin-2(1H)-one], the results for the IC50 (with MCF7 (MCF7 cells); in assay [1]; in assay [2] (setting [5])) were 1100 nM, 11.2 µM and 308 nM, respectively.

Consider `CO[C@H]1CC[C@]2(CC1)NC(=O)C(c1cc(-c3ccc(F)c(Cl)c3)ccc1C)=C2O` [1-43, (5s,8s)-3-(3′-chloro-4′-fluoro-4-methylbiphenyl-3-yl)-4-hydroxy-8-methoxy-1-azaspiro[4.5]dec-3-en-2-one], for which the IC50 is 1220 nM in the assay on MCF7 (setting [3]), above 20 µM in assay [1] and 4930 nM in assay [2] (setting [5]).

In the case of `Cc1ccc(-c2ccc(Cl)cc2)c(C)c1C1=C(O)C2(CCCCC2)OC1=O` [2-4, 3-(4′-chloro-2,4-dimethylbiphenyl-3-yl)-4-hydroxy-1-oxaspiro[4.5]dec-3-en-2-one], the IC50 in the assay with MCF7 (MCF7 cells) worked out at 624 nM; in assay [1] it was 2.7 µM; in assay [2] (setting [4]), 175 nM.

In the case of `COCC1CCCC2(C1)NC(=O)C(c1cc(-c3ccc(Cl)cc3)ccc1C)=C2O` (stereo not drawn) [1-51, 3-(4′-chloro-4-methylbiphenyl-3-yl)-4-hydroxy-7-(methoxymethyl)-1-azaspiro[4.5]dec-3-en-2-one], the IC50 in the assay on MCF7 (setting [3]) was found to be 253 nM; in assay [1], 5.45 µM; in assay [2] it was 415 nM.

Regarding `Cc1ccc(-c2ccc(C(F)(F)F)cc2)cc1C1=C(O)C2(CCCCC2)NC1=O` [1-12, 4-hydroxy-3-[4 methyl-4′-(trifluoromethyl)biphenyl-3-yl]-1-azaspiro[4.5]dec-3-en-2-one], the IC50 is 322 nM with MCF7 (setting [3]), above 20 µM in assay [1] and 871 nM in assay [2] (setting [5]).

On to `Cc1cc(C)c(-c2ccc(Cl)cc2)cc1C1=C(O)C2(CCCOC2)NC1=O` (stereo not drawn) [1-8, 3-(4′-chloro-4,6-dimethylbiphenyl-3-yl)-4-hydroxy-7-oxa-1-azaspiro[4.5]dec-3-en-2-one], for which the IC50 with MCF7 (setting [3]) was 191 nM; in assay [1], above 20 µM; in assay [2] (setting [5]), 5810 nM.

The record behind these values is patent US20130040935A1, “CYCLIC KETO-ENOLS FOR THERAPY” (BAYER INTELLECTUAL PROPERTY GMBH, priority 2010, published 2013).
